The structures appear in SMILES notation. ± gives the expanded uncertainty stated by the source.

The nature of the data set: refractive index (Na D-line) (dimensionless). The conditions noted are these: 298.15 K; 101.33 kPa; Liquid; Standard Abbe refractometry.

In the case of `O=Cc1ccco1` [2-furaldehyde], the refractive index is on record as 1.52263 ± 0.001. The figure for `O` [water] is 1.33249 ± 0.001; for `COC(C)(C)C` [2-methoxy-2-methylpropane] it is 1.36594 ± 0.001.

With `CC(C)=O` [acetone], the refractive index is reported as 1.35553 ± 0.001.

Usually refractive index stands for the speed of light in vacuum divided by its phase velocity in the sample.

Source of the values: the NIST ThermoML archive (doi:10.1021/acs.jced.6b00149).
